This note sets out measurements from patent US6433021B1, “Indane compounds and their pharmaceutical use” (Venantius Limited, priority 1999, dated 2002).

The test system of experiment [1] is arachidonic acid-induced ear oedema. The experiment is described as follows: Mouse ear oedema model (arachidonic acid-induced acute inflammation). Format: in vivo, Laca mice. The settings on record: 300 μg per ear topical in acetone, 30 min before arachidonic acid, 1 hour after arachidonic acid. How it is done:
Mouse Ear Oedema Model The mouse ear oedema model was performed using Laca mice (25-35 g), of either sex. The animals were sedated with fentanyl/fluanisone (Hypnorn, Janssen). One ear was treated by the topical application of one of a range of test compounds or dexamethasone (all at 300 μg per ear in acetone). After 30 minutes, oedema was induced by the topical application of arachidonic acid (10 μl at 0.4 g/ml in acetone). The width of each ear was measured, both before and 60 minutes after the induction of oedema, using a micrometer screw gauge. Ear oedema was calculated by comparing the ear width before and after induction of oedema and expressed as percentage normal. Values are expressed as the percentage increase in ear thickness 1 hour after administration of archidonic acid and solvent controls (n=6 except Compound IV, n=4). Acute Inflammation—Mouse Ear

For the next experiment, the system named is mast cells. Briefly: Histamine release assay (mast cell stabilisation, compound 48/80-induced histamine release). The experiment is classed as cell-based, Female Wistar rats. As to conditions: rat peritoneal mast cells, 2×10^−5 M test compound, stimulated with Compound 48/80, n=5, read-out: % inhibition of histamine Release (±S.E.M.). The method, then:
The compounds were assessed for their ability to stabilise mast cell membranes in vitro. Mast cells treated with the compounds and untreated mast cells were stimulated to release histamine. A reduction in histamine release by the treated cells compared to the untreated cells indicates stabilisation of the membranes.
The buffered salt solution (BSS) was prepared in advance (NaCl 137 mM; KCl 2.7 mM; MgCl2 1.0 mM; CaCl2 0.5 mM; NaH2PO4 0.4 mM; Glucose 5.6 mM; HEPES 10 mM). This was dispensed into test tubes and heated to 37° C. each test tube contained 4.5 ml BSS. The solvent blank was supplemented with 0.5% (v/v) dimethyl sulphoxide (DMSO) or 0.5% (v/v) distilled water (dH2O). […]
To 2 ml of supernatent from each tube was added 0.4 ml of 1 M NaOH and 0.1 ml oPT (1% (w/v) in methanol). […] The presence of the fluorescent product of the reaction was measured using a Shimadzu RF-1501 spectrofluorophotometer set at λex=360 nm, λem=450 nm.
Each drug was tested on at least five animals (n=5). The results were expressed as a percentage of maximum inhibition of compound 48/80 induced-histamine release in the solvent blank sample. […] The basal histamine release in untreated cells was noted, expressed as a percentage of the total histamine content of the cells in suspension.

Where [2] appears, read: first set, solvent control 69.0.
Setting [3] is: second set, solvent control 79.6.

The structures appear in SMILES notation.

With `O=C(CC1(C2=Cc3ccccc3C2)Cc2ccccc2C1=O)c1ccccc1` (stereo not shown) [Compound I, 1-phenyl-2-((2′-iidenyl)-indan-2-onyl)ethan-1-one], in experiment [1] (setting [2]), the “Mean % (percentage increase in ear thickness)” value came out at 49.3%. The term inhibition denotes the relative decrease from the control value, in per cent. For `OC(CC1(C2=Cc3ccccc3C2)Cc2ccccc2C1O)c1ccccc1` (stereo not shown) [Compound II, 1-phenyl-2-((2′-iindenyl)-indan-2-ol)ethan-1-ol], the inhibition at 20 µM in the experiment on mast cells came out at 53.5 ± 2.53%. Further, the “Mean % (percentage increase in ear thickness)” value in experiment [1] (setting [3]) amounted to 17.7%. On to `O=C(CC1(C2=Cc3ccccc3C2)Cc2ccccc2C1O)c1ccccc1` (stereo not shown) [Compound III, 1-phenyl-2-((2′-iidenyl)-indan-2-ol)ethan-1-one], for which, in experiment [1] (setting [3]), the “Mean % (percentage increase in ear thickness)” value was 37.3%.

On to `O=C1c2ccccc2CC1(CC(O)c1ccccc1)C1=Cc2ccccc2C1` (stereo not shown) [Compound IV, 1-phenyl-2-((2′-iidenyl)-indan-2-one)ethan-1-ol], for which the “Mean % (percentage increase in ear thickness)” value in experiment [1] (setting [3]) is 13.1%. On to `C[C@@H]1C[C@H]2[C@@H]3CCC4=CC(=O)C=C[C@]4(C)[C@@]3(F)[C@@H](O)C[C@]2(C)[C@@]1(O)C(=O)CO` [Dexamethasone, reference compound], for which the “Mean % (percentage increase in ear thickness)” value amounted to 41.6% in experiment [1] (setting [2]) and 54.0% in experiment [1] (setting [3]).
